Columns and labels:
Experiment in all cases: relative viability (nuclei count vs DMSO), 5 days (fraction); higher = more cells survive
[1] = compound: Cc1ccc2nc(NCCN)c3ncc(C)n3c2c1 + CC1(C)CCC(c2ccc(Cl)cc2)=C(CN2CCN(c3ccc(C(=O)NS(=O)(=O)c4ccc(N[C@H](CCN5CCOCC5)CSc5ccccc5)c(S(=O)(=O)C(F)(F)F)c4)cc3)CC2)C1 [Navitoclax] (partner 0.5 µM)
Method in brief: (§1)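 Lung cancer cell lines in 1536-well plates got either a single drug or a fixed anchor-drug dose together with five library-drug doses (not always all listed) in √10 steps, by pin tool, on the day after seeding. Nuclei were counted after 5 days, and relative viability is the treated-to-vehicle ratio of nuclei counts. Values are medians of duplicate plates.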

[2] = compound: Cc1ccc2nc(NCCN)c3ncc(C)n3c2c1 + CS(=O)(=O)CCNCc1ccc(-c2ccc3ncnc(Nc4ccc(OCc5cccc(F)c5)c(Cl)c4)c3c2)o1 [Lapatinib] (partner 2 µM)
Method in brief: as §1

Salubrinal + Luminespib = compound: O=C(/C=C/c1ccccc1)NC(NC(=S)Nc1cccc2cccnc12)C(Cl)(Cl)Cl [Salubrinal] + CCNC(=O)c1noc(-c2cc(C(C)C)c(O)cc2O)c1-c1ccc(CN2CCOCC2)cc1 [Luminespib] (partner 0.01 µM)
Method in brief: as §1

Salubrinal + Dasatinib = compound: O=C(/C=C/c1ccccc1)NC(NC(=S)Nc1cccc2cccnc12)C(Cl)(Cl)Cl [Salubrinal] + Cc1nc(Nc2ncc(C(=O)Nc3c(C)cccc3Cl)s2)cc(N2CCN(CCO)CC2)n1 [Dasatinib] (partner 0.075 µM)
Method in brief: as §1

Cell Line | relative viability ([1]; first compound 0.04 µM) | relative viability ([1]; first compound 0.1265 µM) | relative viability ([1]; first compound 0.4 µM) | relative viability ([1]; first compound 1.265 µM) | relative viability ([1]; first compound 4 µM) | relative viability ([2]; first compound 0.04 µM) | relative viability ([2]; first compound 0.1265 µM) | relative viability ([2]; first compound 0.4 µM) | relative viability ([2]; first compound 1.265 µM) | relative viability ([2]; first compound 4 µM) | relative viability (Salubrinal + Luminespib; first compound 0.08 µM) | relative viability (Salubrinal + Luminespib; first compound 0.253 µM) | relative viability (Salubrinal + Luminespib; first compound 0.8 µM) | relative viability (Salubrinal + Luminespib; first compound 2.53 µM) | relative viability (Salubrinal + Luminespib; first compound 8 µM) | relative viability (Salubrinal + Dasatinib; first compound 0.08 µM) | relative viability (Salubrinal + Dasatinib; first compound 0.253 µM) | relative viability (Salubrinal + Dasatinib; first compound 0.8 µM) | relative viability (Salubrinal + Dasatinib; first compound 2.53 µM) | relative viability (Salubrinal + Dasatinib; first compound 8 µM)
CAL-12T | 1.26 | 1.14 | 1.25 | 1.33 | 1.17 | 0.892 | 0.714 | 0.674 | 0.553 | 0.502 | 0.393 | 0.224 | 0.428 | 0.449 | 0.518 | 0.543 | 0.422 | 0.347 | 0.264 | 0.23
EKVX | 1.1 | 0.964 | 0.924 | 0.992 | 0.883 | 0.232 | 0.197 | 0.216 | 0.283 | 0.213 | 0.902 | 0.969 | 0.839 | 0.86 | 0.891 | 0.635 | 0.538 | 0.552 | 0.469 | 0.426
NCI-H1651 | 1.02 | 1.02 | 1.19 | 1.18 | 0.955 | 0.853 | 0.879 | 0.841 | 0.894 | 0.737 | 0.99 | 0.897 | 0.962 | 0.743 | 0.827 | 0.487 | 0.259 | 0.452 | 0.393 | 0.35
SW 1573 | 1.07 | 0.938 | 1.16 | 1.1 | 0.689 | 1.07 | 1.1 | 1.19 | 1.42 | 0.954 | 0.211 | 0.26 | 0.206 | 0.238 | 0.169 | 0.553 | 0.488 | 0.627 | 0.402 | 0.417
A-427 | 0.914 | 0.864 | 0.946 | 1.02 | 0.968 | 1.13 | 1.06 | 1.02 | 0.957 | 1.06 | 1.04 | 0.696 | 1.07 | 0.8 | 1.2 | 0.724 | 0.643 | 0.747 | 0.68 | 0.654
NCI-H2347 | 0.871 | 0.723 | 0.715 | 0.787 | 0.677 | 0.99 | 0.99 | 0.908 | 0.987 | 0.87 | 0.786 | 0.63 | 0.381 | 0.512 | 0.403 | 0.295 | 0.327 | 0.317 | 0.346 | 0.318
NCI-H1355 | 0.909 | 0.942 | 0.924 | 0.9 | 0.806 | 1.02 | 0.981 | 0.962 | 0.952 | 0.988 | 0.801 | 0.744 | 0.555 | 0.72 | 0.705 | 0.764 | 0.569 | 0.806 | 0.685 | 0.603
NCI-H1944 | 1.11 | 1.01 | 1.04 | 1.06 | 1.03 | 0.772 | 0.805 | 0.642 | 0.978 | 0.758 | 0.792 | 1.04 | 0.807 | 0.733 | 0.831 | 0.233 | 0.216 | 0.205 | 0.226 | 0.246

— the supplement of paper PMC10307832
